# In patent publication US20080200403A1, “9A-Carbamoyl and Thiocarbamoyl Azalides with Anti-Inflammatory Activity” (GLAXOSMITHKLINE, priority 2005, published 2008):
# Where two headings read alike, the source gives them in different places.
# Assays:
# Type in all cases: cell-based
# IL-1α = assay: Inhibition of IL-1 production by stimulated human peripheral blood leukocytes in vitro; details: PBL; for inhibition at 10 µM / inhibition at 50 µM: Homo sapiens, Leukocyte, read-out: Percentage of inhibition of IL-1α production
# TNF-α = assay: Inhibition of TNF-α production by stimulated human peripheral blood leukocytes in vitro; details: PBL; for inhibition at 10 µM / inhibition at 50 µM: Homo sapiens, Leukocyte, read-out: Percentage of inhibition of TNF-α production
# Procedure, shortened: (§1)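 Dextran-isolated human PBL (3-5×10^6 per well) in RPMI with 10% FCS were preincubated 2 h at 37 °C with compounds at 50 μM or 10 μM final, then stimulated overnight with 2 μg/mL LPS, 1 μg/mL PMA or 120 μg/mL zymosan. Supernatant cytokines by sandwich ELISA; % inhibition versus stimulated untreated control.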
# [1] = system: human peripheral blood mononuclear cells (PBMC); assay: Human T-cell proliferation in vitro (3H-thymidine incorporation); details: for inhibition at 10 µM / inhibition at 50 µM: Homo sapiens, PBMC, read-out: Percentage of inhibition of proliferation of stimulated PBMC
# Procedure, shortened: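 Donor PBMC isolated on Histopaque, 5×10^4 cells/well cultured 3 days at 37 °C with PHA (2.5 μg/mL) or PMA (10 ng/mL) plus ionomycin (500 ng/mL), and compound at 50 μM or 10 μM. 3H-thymidine pulse during final 18 h; % inhibition versus stimulated untreated cpm.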
# IL-6 = assay: Inhibition of IL-6 production by stimulated human peripheral blood leukocytes in vitro; details: PBL; for inhibition at 10 µM / inhibition at 50 µM: Homo sapiens, Leukocyte, read-out: Percentage of inhibition of IL-6 production
# Procedure, shortened: as §1
# IL-8 = assay: Inhibition of IL-8 production by stimulated human peripheral blood leukocytes in vitro; details: PBL; for inhibition at 10 µM / inhibition at 50 µM: Homo sapiens, Leukocyte, read-out: Percentage of inhibition of IL-8 production
# Procedure, shortened: as §1
# [2] = zymosan stimulated, compound 10 μM
# [3] = zymosan stimulated, compound 50 μM
# [4] = PMA + ionomycin stimulated, compound 10 μM
# [5] = PMA + ionomycin stimulated, compound 50 μM
compound,measurement,setting,value
CC[C@H]1OC(=O)[C@H](C)[C@@H](O[C@H]2C[C@@](C)(OC)[C@@H](O)[C@H](C)O2)[C@H](C)[C@@H](O[C@@H]2O[C@H](C)C[C@H](N(C)C)[C@H]2O)[C@](C)(O)C[C@@H](C)CN(C(=S)Nc2cccc(C(F)(F)F)c2)[C@H](C)[C@@H](O)[C@]1(C)O [Compound 4],inhibition at 10 µM,"IL-1α; LPS stimulated, compound 10 μM",74%
same,inhibition at 50 µM,"IL-1α; LPS stimulated, compound 50 μM",82%
same,inhibition at 10 µM,"IL-1α; PMA stimulated, compound 10 μM",54%
same,inhibition at 50 µM,"IL-1α; PMA stimulated, compound 50 μM",92%
same,inhibition at 10 µM,IL-1α; [2],60%
same,inhibition at 50 µM,IL-1α; [3],13%
same,inhibition at 10 µM,"TNF-α; LPS stimulated, compound 10 μM",39%
same,inhibition at 50 µM,"TNF-α; LPS stimulated, compound 50 μM",100%
same,inhibition at 10 µM,"TNF-α; PMA stimulated, compound 10 μM",50%
same,inhibition at 50 µM,"TNF-α; PMA stimulated, compound 50 μM",100%
same,inhibition at 10 µM,TNF-α; [2],36%
same,inhibition at 50 µM,TNF-α; [3],97%
same,inhibition at 10 µM,"[1]; PHA stimulated, compound 10 μM",30%
same,inhibition at 50 µM,"[1]; PHA stimulated, compound 50 μM",102%
same,inhibition at 10 µM,[1]; [4],50%
same,inhibition at 50 µM,[1]; [5],100%
same,inhibition at 10 µM,"IL-6; LPS stimulated, compound 10 μM",38%
same,inhibition at 50 µM,"IL-6; LPS stimulated, compound 50 μM",100%
same,inhibition at 10 µM,IL-6; [2],0%
same,inhibition at 50 µM,IL-6; [3],100%
same,inhibition at 10 µM,"IL-8; LPS stimulated, compound 10 μM",41%
same,inhibition at 50 µM,"IL-8; LPS stimulated, compound 50 μM",100%
same,inhibition at 10 µM,"IL-8; PMA stimulated, compound 10 μM",52%
same,inhibition at 50 µM,"IL-8; PMA stimulated, compound 50 μM",100%
same,inhibition at 10 µM,IL-8; [2],0%
same,inhibition at 50 µM,IL-8; [3],52%
CCC1OC(=O)C(C)C(OC2CC(C)(OC)C(O)C(C)O2)C(C)C(OC2OC(C)CC(N(C)C)C2O)C(C)(O)CC(C)CN(C(=S)Nc2cccc(F)c2)C(C)C(O)C1(C)O (stereo not shown) [Compound 3],Percentage of inhibition of IL-1α production,"IL-1α; LPS stimulated, compound 10 μM",52%
same,Percentage of inhibition of IL-1α production,"IL-1α; LPS stimulated, compound 50 μM",30%
same,Percentage of inhibition of IL-1α production,"IL-1α; PMA stimulated, compound 10 μM",4%
same,Percentage of inhibition of IL-1α production,"IL-1α; PMA stimulated, compound 50 μM",0%
same,Percentage of inhibition of IL-1α production,IL-1α; [2],75%
same,Percentage of inhibition of IL-1α production,IL-1α; [3],74%
same,Percentage of inhibition of TNF-α production,"TNF-α; LPS stimulated, compound 10 μM",45%
same,Percentage of inhibition of TNF-α production,"TNF-α; LPS stimulated, compound 50 μM",74%
same,Percentage of inhibition of TNF-α production,"TNF-α; PMA stimulated, compound 10 μM",37%
same,Percentage of inhibition of TNF-α production,"TNF-α; PMA stimulated, compound 50 μM",75%
same,Percentage of inhibition of TNF-α production,TNF-α; [2],71%
same,Percentage of inhibition of TNF-α production,TNF-α; [3],94%
same,Percentage of inhibition of proliferation of stimulated PBMC,"[1]; PHA stimulated, compound 10 μM",26%
same,Percentage of inhibition of proliferation of stimulated PBMC,"[1]; PHA stimulated, compound 50 μM",100%
same,Percentage of inhibition of proliferation of stimulated PBMC,[1]; [4],23%
same,Percentage of inhibition of proliferation of stimulated PBMC,[1]; [5],92%
same,Percentage of inhibition of IL-6 production,"IL-6; LPS stimulated, compound 10 μM",13%
same,Percentage of inhibition of IL-6 production,"IL-6; LPS stimulated, compound 50 μM",79%
same,Percentage of inhibition of IL-6 production,"IL-6; PMA stimulated, compound 10 μM",24%
same,Percentage of inhibition of IL-6 production,"IL-6; PMA stimulated, compound 50 μM",9%
same,Percentage of inhibition of IL-6 production,IL-6; [2],59%
same,Percentage of inhibition of IL-6 production,IL-6; [3],81%
same,Percentage of inhibition of IL-8 production,"IL-8; LPS stimulated, compound 10 μM",38%
same,Percentage of inhibition of IL-8 production,"IL-8; LPS stimulated, compound 50 μM",81%
same,Percentage of inhibition of IL-8 production,"IL-8; PMA stimulated, compound 10 μM",61%
same,Percentage of inhibition of IL-8 production,"IL-8; PMA stimulated, compound 50 μM",47%
same,Percentage of inhibition of IL-8 production,IL-8; [2],40%
same,Percentage of inhibition of IL-8 production,IL-8; [3],88%
CC[C@H]1OC(=O)[C@H](C)[C@@H](O[C@H]2C[C@@](C)(OC)[C@@H](O)[C@H](C)O2)[C@H](C)[C@@H](O[C@@H]2O[C@H](C)C[C@H](N(C)C)[C@H]2O)[C@](C)(O)C[C@@H](C)CN(C(=S)Nc2ccccc2F)[C@H](C)[C@@H](O)[C@]1(C)O [Compound 5],inhibition at 10 µM,"IL-1α; LPS stimulated, compound 10 μM",41%
same,inhibition at 50 µM,"IL-1α; LPS stimulated, compound 50 μM",10%
same,inhibition at 10 µM,"IL-1α; PMA stimulated, compound 10 μM",14%
same,inhibition at 50 µM,"IL-1α; PMA stimulated, compound 50 μM",14%
same,inhibition at 10 µM,IL-1α; [2],27%
same,inhibition at 50 µM,IL-1α; [3],41%
same,inhibition at 10 µM,"TNF-α; LPS stimulated, compound 10 μM",19%
same,inhibition at 50 µM,"TNF-α; LPS stimulated, compound 50 μM",45%
same,inhibition at 10 µM,"TNF-α; PMA stimulated, compound 10 μM",62%
same,inhibition at 50 µM,"TNF-α; PMA stimulated, compound 50 μM",85%
same,inhibition at 10 µM,TNF-α; [2],49%
same,inhibition at 50 µM,TNF-α; [3],76%
same,inhibition at 10 µM,"[1]; PHA stimulated, compound 10 μM",0%
same,inhibition at 50 µM,"[1]; PHA stimulated, compound 50 μM",72%
same,inhibition at 10 µM,[1]; [4],20%
same,inhibition at 50 µM,[1]; [5],87%
same,inhibition at 10 µM,"IL-6; LPS stimulated, compound 10 μM",64%
same,inhibition at 50 µM,"IL-6; LPS stimulated, compound 50 μM",72%
same,inhibition at 10 µM,"IL-6; PMA stimulated, compound 10 μM",44%
same,inhibition at 50 µM,"IL-6; PMA stimulated, compound 50 μM",60%
same,inhibition at 10 µM,IL-6; [2],66%
same,inhibition at 50 µM,IL-6; [3],88%
same,inhibition at 10 µM,"IL-8; LPS stimulated, compound 10 μM",16%
same,inhibition at 50 µM,"IL-8; LPS stimulated, compound 50 μM",42%
same,inhibition at 10 µM,"IL-8; PMA stimulated, compound 10 μM",23%
same,inhibition at 50 µM,"IL-8; PMA stimulated, compound 50 μM",69%
same,inhibition at 10 µM,IL-8; [2],20%
same,inhibition at 50 µM,IL-8; [3],46%
